Assay [1] has as its system lumbar spine (L4-5) vertebral body of ovariectomized rats. The experiment in a line: Suppression of bone mass decrease in ovariectomized rats (osteoporosis model rats). It counts as in vivo, Female SD rats. The conditions noted are these: 12 weeks, Control 46.1 ± 0.5, Normal control 56.3 ± 1.4. The procedure:
Experimental Example 2 suppression of bone mass decrease
The suppressive effect of the compound of the present invention on the bone mass decrease was tested using the ovariectomized rats (osteoporosis model rats).
Female SD rats (13 weeks of age) were subjected to bilateral ovariectomies under anesthesia with Nembutal (50 mg/kg/ml, i.p.; Dai-Nippon Pharmaceutical). At the same time, a sham control group that was subjected to sham surgery without removing ovaries was prepared. The next day of the operation, the rats were grouped in such a manner that the bone mineral density (hereinafter abbreviated as BMD) of each group would reach an average. The BMD was determined by their bone mineral density of lumbar spine (L 4-5) that was measured with a DXA bone densitometer (DCS-600 R, Aloka) under ether anesthesia. The test compounds were suspended in 0.5% hydroxypropylmethylcellulose (hereinafter abbreviated as HPMC, Shin-Etsu Chemical Industries, Ltd.) and they were administered orally at the doses of 0.3, 1.0 and 3.0 mg/kg (5 ml/kg:) for 12 weeks daily from the day following the operation. As a positive control, 17 β-estradiol (Sigma) was dissolved in 5% benzyl alcohol and 95% corn oil, and administered subcutaneously at a dose of 50 μg/kg (1 ml/kg) twice a week for 12 weeks. 0.5% HPMC was administered orally to the normal control and the control for 12 weeks at 5 ml/kg. The next day of the final administration, the rats were exsanguinated and killed under ether anesthesia and the lumbar spine (L4-5) was recovered. The soft tissues and processes were removed from the obtained lumbar spine and BMD of the vertebral body (L4-5) was determined with DCS-600 R (Aloka).
The results are shown by mean±S.E. of the respective groups and the statistical evaluations of the effect of respective groups were made by one-way analysis of variance. The significance was ascribed at less than 5%.

A further assay concerns calvaria. Briefly: Inhibition of bone resorption (45Ca release from calvaria stimulated with hPTH (1-34), method of Raisz). It counts as cell-based, new born ICR mouse. Conditions: read-out: IC50 (inhibition of bone resorption).
[2] abbreviates: Mus musculus, 72 h, 45Ca release, 50 nM hPTH (1-34), 3 days incubation, test concentrations 0.04, 0.2 and 1 μM, mean of 4 pairs.
Where [3] appears, read: 0.3 mg/kg p.o., daily, n=9, mean ± S.E.
Where [4] appears, read: 1 mg/kg p.o., daily, n=8, mean ± S.E., *p < 0.05.
The mark [5] stands for this setting: 3 mg/kg p.o., daily, n=9, mean ± S.E., **p < 0.01.

Each structure is given as a SMILES string. Where two headings read alike, the source gives them in different places.

Excerpt for calvaria: The determination of the inhibitory action on the bone resorption was basically in accordance with the method of Raisz [J. Clin. Invest. vol.
A new born ICR mouse (one or two days old) was intraperitoneally administered with 1.5μ Ci ^45 Ca (isotope of calcium as CaCl2 solution) and calvaria was aseptically removed the next day. The calvaria was split into two along the central suture line, and one of them was used as a control and the other was used as a test compound. The calvaria was preincubated at 37° C. for 2 days in BGJb medium [0.5 ml, Fitton-Jackson modification, GIBCO Laboratories, USA, containing bovine serum albumin 1 mg/ml] added with a test compound to the concentrations of 0.04 μM, 0.2 μM and 1 μM and then in the above-mentioned medium containing 50 nM hPTH (1-34) for further 3 days. After the incubation, the ^45 Ca radioactivity in the medium and the bone was determined, and the proportion (%) of ^45 Ca released from the bone into the medium was calculated by the following formula.
Using the bone obtained from the same mouse and treated in the same manner without adding a test compound, as a control, the proportion (%) relative to the control group was determined according to the following formula.

`C[C@]12CC[C@@H]3c4ccc(O)cc4CC[C@H]3[C@@H]1CC[C@@H]2O` [17 β-estradiol, reference compound]: the “BMD of body of vertebra” value in assay [1] (positive control, 0.05 mg/kg s.c., twice a week, n=8, mean ± S.E.) worked out at 53.5 ± 0.7 mg/cm^2. For `Cc1nnc2n1-c1ccccc1C(c1ccc(Cl)cc1)=NN2Cc1cccnc1` [Example 54, 6-(4-Chlorophenyl)-1-methyl-4-(pyridin-3-ylmethyl)-4H-2,3,4,5,10b-pentaazabenz[e]azulene], in the assay with calvaria (setting [2]), the IC50 (usually the midpoint of a concentration-inhibition curve) was 540 nM. For the same molecule, the results for the “BMD of body of vertebra” value in assay [1] (setting [3]), in assay [1] (setting [4]) and in assay [1] (setting [5]) were 46.2 ± 0.4 mg/cm^2, 47.3 ± 0.6 mg/cm^2 and 51.6 ± 0.4 mg/cm^2, respectively. `Cc1nc(CN2N=C(c3ccc(Cl)cc3)c3ccccc3-n3c(C)nnc32)cs1` [Example 100, 6-(4-Chlorophenyl)-4-(2-methyl-1,3-thiazol-4-ylmethyl)-1-methyl-4H-2,3,4,5,10b-pentaazabenz[e]azulene]: the half-maximal inhibitory concentration (IC50) in the assay with calvaria (setting [2]) is 710 nM. As to `C=C(Br)CN1N=C(c2ccc(Cl)cc2)c2ccccc2-n2c(C)nnc21` [Example 113, 4-(2-Bromo-2-propenyl)-6-(4-chlorophenyl)-1l-methyl-4H-2,3,4,5,10b-pentaazabenz[e]azulene], in the assay on calvaria (Mus musculus, 72 h), the concentration for half-maximal inhibition (IC50) came out at 500 nM. Turning to `Cc1nnc2n1-c1ccccc1C(c1ccccc1)=NN2Cc1cccnc1` [Example 128, 1-Methyl-6-phenyl-4-(pyridin-3-ylmethyl)-4H-2,3,4,5,10b-pentaazabenz[e]azulene], in the assay on calvaria (setting [2]), the half-maximal inhibitory concentration (IC50) was found to be 930 nM. Turning to `CCc1cc2c(s1)-n1c(C)nnc1N(Cc1ccncc1)N=C2c1ccc(Cl)cc1` [Example 142, 4-(4-Chlorophenyl)-2-ethyl-9-methyl-6-(pyridin-4-ylmethyl)-6H-5,6,7,8,9a-pentaazathien[2,3-e]azulene], the concentration for half-maximal inhibition (IC50) in the assay with calvaria (setting [2]) came to 450 nM.

Take `Cc1nnc2n1-c1ccccc1C(c1ccc(Cl)cc1)=NN2Cc1cc(F)ccc1F` [Example 61, 6-(4-Chlorophenyl)-4-(2,5-difluorobenzyl)-1-methyl-4H-2,3,4,5,10b-pentaazabenz[e]azulene]: the half-maximal inhibitory concentration (IC50) in the assay on calvaria (setting [2]) was 810 nM. `Cc1nnc2n1-c1ccccc1C(c1ccc(Cl)cc1)=NN2Cc1ccc(F)cc1` [Example 59, 6-(4-Chlorophenyl)-4-(4-fluorobenzyl)-1-methyl-4H-2,3,4,5,10b-pentaazabenz[e]azulene]: in the assay with calvaria (Mus musculus, 72 h), the IC50 was 680 nM.

Regarding `Cc1nnc2n1-c1ccccc1C(c1ccc(Cl)cc1)=NN2Cc1cccc(C#N)c1` [Example 56, 6-(4-Chlorophenyl)-4-(3-cyanobenzyl)-1-methyl-4H-2,3,4,5,10b-pentaazabenz[e]azulene], the concentration for half-maximal inhibition (IC50) in the assay with calvaria (setting [2]) was determined as 250 nM.

As to `Cc1nnc2n1-c1ccccc1C(c1ccc(Cl)cc1)=NN2Cc1cccnc1` [Example 98, 6-(4-Chlorophenyl)-1-methyl-4-(pyridin-3-ylmethyl)-4H-2,3,4,5,10b-pentaazabenz[e]azulene], the IC50 with calvaria (45Ca release, 50 nM hPTH (1-34), 3 days incubation, test concentrations 0.04, 0.2 and 1 μM, mean of 4 pairs) amounted to 540 nM. Turning to `Cc1nnc2n1-c1ccccc1C(c1ccc(Cl)cc1)=NN2CC1CC1` [Example 106, 6-(4-Chlorophenyl)-4-cyclopropylmethyl-1-methyl-4H-2,3,4,5,10b-pentaazabenz[e]azulene], the IC50 with calvaria (setting [2]) is 830 nM.

With `Cc1nnc2n1-c1ccccc1C(c1ccc(Cl)cc1)=NN2Cc1ccc(F)c(F)c1` [Example 63, 6-(4-Chlorophenyl)-4-(3,4-difluorobenzyl)-1-methyl-4H-2,3,4,5,10b-pentaazabenz[e]azulene], the IC50 in the assay with calvaria (setting [2]) was 740 nM. `Cc1ccc2c(c1)-n1c(C)nnc1N(Cc1ccncc1)N=C2c1ccccc1` [Example 131, 1,9-Dimethyl-6-phenyl-4-(pyridin-4-ylmethyl)-4H-2,3,4,5,10b-pentaazabenz[e]azulene]: in the assay with calvaria (setting [2]), the half-inhibitory concentration (IC50) was determined as 990 nM. For the same molecule, the “BMD of body of vertebra” value in assay [1] (setting [3]) is recorded as 46.5 ± 0.8 mg/cm^2; in assay [1] (setting [4]), 48.5 ± 0.5 mg/cm^2; in assay [1] (setting [5]), 51.3 ± 0.9 mg/cm^2. As to `CCOc1ccc(CN2N=C(c3ccc(Cl)cc3)c3ccccc3-n3c(C)nnc32)cc1` [Example 186, 6-(4-Chlorophenyl)-4-(4-ethoxybenzyl)-1-methyl-4H-2,3,4,5,10b-pentaazabenz[e]azulene], the IC50 in the assay on calvaria (setting [2]) stood at 790 nM. Still for that read-out and setting: in the case of `Cc1cc2c(s1)-n1c(C)nnc1N(Cc1cccnc1)N=C2c1ccccc1` [Example 143, 2,9-Dimethyl-4-phenyl-6-(pyridin-3-ylmethyl)-6H-5,6,7,8,9a-pentaazathien[2,3-e]azulene] it was 340 nM. With `Cc1sc2c(c1C)C(c1ccccc1)=NN(Cc1ccncc1)c1nnc(C)n1-2` [Example 146, 2,3,9-Trimethyl-4-phenyl-6-(pyridin-4-ylmethyl)-6H-5,6,7,8,9a-pentaazathien[2,3-e]azulene], in the assay on calvaria (setting [2]), the concentration for half-maximal inhibition (IC50) came out at 100 nM. Turning to `Cc1nnc2n1-c1ccccc1C(c1ccc(Cl)cc1)=NN2Cc1cc(Cl)nc(Cl)c1` [Example 123, 6-(4-Chlorophenyl)-4-(2,6-dichloropyridin-4-ylmethyl)-1-methyl-4H-2,3,4,5,10b-pentaazabenz[e]azulene], the IC50 with calvaria (setting [2]) was determined as 650 nM.

With `Cc1nnc2n1-c1ccccc1C(c1ccc(Cl)cc1)=NN2Cc1ccncc1` [Example 120, 6(4-Chlorophenyl)-1-methyl-4-(pyridin-4-ylmethyl)-4H-2,3,4,5,10b-pentaazabenz[e]azulene], in the assay with calvaria (setting [2]), the IC50 amounted to 220 nM. With `Cc1sc2c(c1C)C(c1ccccc1)=NN(Cc1cccnc1)c1nnc(C)n1-2` [Example 145, 2,3,9-Trimethyl-4-phenyl-6-(pyridin-3-ylmethyl)-6H-5,6,7,8,9a-pentaazathien[2,3-e]azulene], the IC50 in the assay with calvaria (setting [2]) came out at 120 nM. Take `Cc1nnc2n1-c1ccc(Cl)cc1C(c1ccccc1)=NN2Cc1ccncc1` [Example 126, 8-Chloro-1-methyl-6-phenyl-4-(pyridin-4-ylmethyl)-4H-2,3,4,5,10b-pentaazabenz[e]azulene]: in the assay on calvaria (Mus musculus, 72 h), the IC50 amounted to 530 nM.

Source of the values: patent US5807850A, “Therapeutic agent for osteoporosis and triazepine compound” (Japan Tobacco, Inc., priority 1994, dated 1998).
